Patent US20260374766A1, “METHODS FOR TREATING CANCER” (Antares Therapeutics, Inc., priority 2022, published 2026)
Where two headings read alike, the source gives them in different places.

Tests used:
[1] = target: T1, p53 Y220C mutant protein (amino acid residues 94-293) (Homo sapiens, UniProt P04637, Y220C); assay: Surface Plasmon Resonance (SPR) assay, Kd_kinetic; type: binding; conditions: SPR, p53 Y220C, read-out: SPR P53 Y220C KD kinetic
T1 construct: p53 Y220C mutant protein (amino acid residues 94-293)
Summary of the method: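 Biacore 8K SPR; 16 or 20 °C; Tris 50 mM pH 7.5, NaCl 100 mM, DTT 1 mM, Brij35 0.01%, Tween-20 0.05%, DMSO 1%. Kd_kinetic by 1:1 fit.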

H1299 p53 R273H = assay: Cell Proliferation Assay (CellTiter-Glo, CTG), H1299 p53 R273H (NClH1299-inducible p53 R273H); type: cell-based; conditions: Homo sapiens, NCI-H1299, 120 h, CellTiter-Glo, 5 days
Summary of the method: (§1)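 NClH1299 lines stably transduced with Tet-inducible p53 Y220C or R273H, plus NUGC3, were treated with compound for 5 days at 250-500 cells/well. IC50 derived from CellTiter-Glo luminescent signal after 10 min room-temperature incubation.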

NUGC3 p53 Y220C = assay: Cell Proliferation Assay (CellTiter-Glo, CTG), NUGC3 p53 Y220C; type: cell-based; conditions: Homo sapiens, NUGC-3, 120 h, CellTiter-Glo, 5 days
Summary of the method: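 Tet-One inducible p53 Y220C or R273H constructs were stably introduced into NCI-H1299 by lentiviral transduction; NUGC3 was used as is. Cells (250-500 per well) were exposed to compound for 5 days, then CellTiter-Glo was added for 10 min at room temperature and IC50 was calculated from luminescence.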

p53 Y220C = p53 Y220C (Homo sapiens, UniProt P04637, Y220C); assay: Luciferase Reporter Assay (Luc), p53 response element, NClH1299 cells with inducible p53 Y220C; type: cell-based; conditions: luciferase reporter, NClH1299 inducible p53 Y220C, 6 hour; for AC50: read-out: Luc P53 Y220C AC50
Summary of the method: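 Luciferase activity is measured directly after One-Glo addition and a 5-minute room-temperature shake. Before that, cells plated at 5,000 per well receive doxycycline at 0.5 ug/mL for 24 hours, followed by compound for 6 hours.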

H1299 p53 Y220C = assay: Cell Proliferation Assay (CellTiter-Glo, CTG), H1299 p53 Y220C (NClH1299-inducible p53 Y220C); type: cell-based; conditions: Homo sapiens, NCI-H1299, 120 h, CellTiter-Glo, 5 days
Summary of the method: as §1

[2] = target: T1, p53 Y220C mutant protein (amino acid residues 94-293); assay: Thermal Shift Assay (TSA), dTM; type: binding; conditions: for ΔTm at 10 µM: 10 uM compound; for ΔTm at 100 µM: 100 uM compound
Summary of the method: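 First, the mutant DNA-binding domain (5 μM) was preincubated 3 hours at 20 °C with compound at 10 μM or 100 μM. Next, the sample was heated from 30 °C to 50 °C at 0.03 °C/second in the presence of Sypro Orange. Finally, TM was obtained from a two-state Boltzmann fit.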

[3] = 10 uM tool compound as positive control
[4] = thermal shift, read-out: TSA P53 Y220C dTM (10 uM)
[5] = thermal shift, read-out: TSA P53 Y220C dTM (100 uM)
[6] = NClH1299-inducible p53 R273H cells
[7] = NClH1299-inducible p53 Y220C cells
[8] = p53 Y220C, read-out: TSA P53 Y220C dTM

Row | SMILES | Kd ([1]; kinetic KD) | IC50 (H1299 p53 R273H; H1299 p53 R273H) | IC50 (NUGC3 p53 Y220C; NUGC3 p53 Y220C) | Emax (p53 Y220C; [3]) | AC50 (p53 Y220C) | IC50 (H1299 p53 Y220C; H1299 p53 Y220C) | ΔTm at 10 µM [2, 4] | ΔTm at 100 µM [2, 5] | Kd [1] | IC50 (H1299 p53 R273H; [6]) | IC50 (NUGC3 p53 Y220C; NUGC3 cells) | AC50 (p53 Y220C; AC50) | Emax (p53 Y220C; Emax) | IC50 (H1299 p53 Y220C; [7]) | ΔTm at 10 µM [2, 8] | ΔTm at 100 µM [2, 8]
1 | CNC(=O)c1ccc(C)c(NCC#Cc2nc3c(N[C@@H]4CCN(C)C[C@@H]4F)cccn3c2SC(F)(F)F)c1 [Example 160] | < 10 nM | ≥ 10000 nM | < 750 nM | > 90% | < 750 nM | < 750 nM | ≥ 10 °C | ≥ 10 °C | – | – | – | – | – | – | – | –
2 | CNC(=O)c1cnc(OC)c(NCC#Cc2nc3c(N[C@@H]4CCN(C)C[C@@H]4F)cccn3c2CC(F)(F)F)c1 [Example 261] | – | – | – | – | – | – | – | – | < 10 nM | ≥ 10000 nM | < 750 nM | 1500 to 3000 nM | 70 to 80% | 750 to 1500 nM | 5 to 10 °C | ≥ 10 °C
3 | CNC(=O)c1ccc(NCC#Cc2nc3c(N[C@@H]4CNC[C@@H]4F)cccn3c2SC(F)(F)F)c(OC)c1 [Example 102, 4-{[3-(8-{[(3R,4S)-4-fluoropyrrolidin-3-yl]amino}-3-[(trifluoromethyl)sulfanyl]imidazo[1,2-a]pyridin-2-yl)prop-2-yn-1-yl]amino}-3-methoxy-N-methylbenzamide] | < 10 nM | ≥ 10000 nM | < 750 nM | 70 to 80% | < 750 nM | < 750 nM | ≥ 10 °C | ≥ 10 °C | – | – | – | – | – | – | – | –
4 | COc1cc(C(N)=O)ccc1NCC#Cc1nn2c(N[C@@H]3CCN(C)C[C@@H]3F)cccc2c1SC(F)(F)F [Example 233] | – | – | – | – | – | – | – | – | < 10 nM | 8000 to 10000 nM | < 750 nM | < 750 nM | 80 to 90% | < 750 nM | ≥ 10 °C | –
5 | CCS(=O)(=O)c1ccc(NCC#Cc2nc3c(N[C@@H]4CCN(C)C[C@@H]4F)cccn3c2CC(F)(F)F)c(OC)c1 [Example 66, (3S,4R)—N-[2-(3-{[4-(ethanesulfonyl)-2-methoxyphenyl]amino}prop-1-yn-1-yl)-3-(2,2,2-trifluoroethyl)imidazo[1,2-a]pyridin-8-yl]-3-fluoro-1-methylpiperidin-4-amine] | < 10 nM | 5000 to 8000 nM | < 750 nM | 70 to 80% | < 750 nM | < 750 nM | – | ≥ 10 °C | – | – | – | – | – | – | – | –
6 | COc1cc(S(C)(=O)=O)ccc1NCC#Cc1nc2c(N[C@H]3CCN(C)C[C@H]3F)cccn2c1CC(F)(F)F [Example 6, (3R,4S)-3-fluoro-N-(2-{3-[(4-methanesulfonyl-2-methoxyphenyl)amino]prop-1-yn-1-yl}-3-(2,2,2-trifluoroethyl)imidazo[1,2-a]pyridin-8-yl)-1-methylpiperidin-4-amine] | 10 to 100 nM | ≥ 10000 nM | 1500 to 3000 nM | 70 to 80% | 1500 to 3000 nM | 1500 to 3000 nM | – | ≥ 10 °C | – | – | – | – | – | – | – | –
7 | CNC(=O)c1ccc(NCC#Cc2cc3c(N[C@@H]4CCN(C)C[C@@H]4F)cccn3c2SC(F)(F)F)cc1 [Example 357] | – | – | – | – | – | – | – | – | < 10 nM | 5000 to 8000 nM | < 750 nM | < 750 nM | > 90% | < 750 nM | ≥ 10 °C | –
8 | COc1cc2c(cc1NCC#Cc1nc3c(N[C@@H]4CCN(C)C[C@@H]4F)cccn3c1SC(F)(F)F)C(=O)NC2 [Example 151] | < 10 nM | 5000 to 8000 nM | < 750 nM | > 90% | < 750 nM | < 750 nM | ≥ 10 °C | – | – | – | – | – | – | – | – | –
9 | COc1ccc(C(=O)NC[C@@H](C)O)cc1NCC#Cc1cc2c(N[C@@H]3CCN(C)C[C@@H]3F)nccn2c1SC(F)(F)F [Example 359] | – | – | – | – | – | – | – | – | < 10 nM | ≥ 10000 nM | < 750 nM | < 750 nM | > 90% | < 750 nM | ≥ 10 °C | –
10 | COc1cc(C(=O)NC2CC2)ccc1NCC#Cc1nc2c(N[C@@H]3CCN(C)C[C@@H]3F)cccn2c1SC(F)(F)F [Example 86, N-cyclopropyl-4-{[3-(8-{[(3S,4R)-3-fluoro-1-methylpiperidin-4-yl]amino}-3-[(trifluoromethyl)sulfanyl]imidazo[1,2-a]pyridin-2-yl)prop-2-yn-1-yl]amino}-3-methoxybenzamide] | < 10 nM | 5000 to 8000 nM | < 750 nM | 80 to 90% | < 750 nM | < 750 nM | – | ≥ 10 °C | – | – | – | – | – | – | – | –
11 | CNC(=O)c1ccc(NCC#Cc2nc3c(N[C@H]4CCN(C)C4)cccn3c2SC(F)(F)F)c(OC)c1 [Example 243] | – | – | – | – | – | – | – | – | < 10 nM | ≥ 10000 nM | 750 to 1500 nM | 1500 to 3000 nM | 70 to 80% | 750 to 1500 nM | 5 to 10 °C | ≥ 10 °C
12 | CNC(=O)c1cc(OC)c(NCC#Cc2nc3c(N[C@@H]4CCN(C)C[C@@H]4F)cccn3c2CC(F)(F)F)cc1Cl [Example 111, 2-chloro-4-{[3-(8-{[(3S,4R)-3-fluoro-1-methylpiperidin-4-yl]amino}-3-(2,2,2-trifluoroethyl)imidazo[1,2-a]pyridin-2-yl)prop-2-yn-1-yl]amino}-5-methoxy-N-methylbenzamide] | < 10 nM | ≥ 10000 nM | 750 to 1500 nM | > 90% | 750 to 1500 nM | 750 to 1500 nM | – | ≥ 10 °C | – | – | – | – | – | – | – | –
13 | CNC(=O)c1ccc(NCC#Cc2nc3c(N[C@H]4CCc5nncn5C4)cccn3c2SC(F)(F)F)c(OC)c1 [Example 191] | < 10 nM | ≥ 10000 nM | > 3000 nM | < 70% | > 3000 nM | > 3000 nM | 5 to 10 °C | ≥ 10 °C | – | – | – | – | – | – | – | –
14 | COc1cc(C(=O)N2CCCC2)ccc1NCC#Cc1nc2c(N[C@@H]3CCN(C)C[C@@H]3F)cccn2c1CC(F)(F)F [Example 50, (3S,4R)-3-fluoro-N-[2-(3-{[2-methoxy-4-(pyrrolidine-1-carbonyl)phenyl]amino}prop-1-yn-1-yl)-3-(2,2,2-trifluoroethyl)imidazo[1,2-a]pyridin-8-yl]-1-methylpiperidin-4-amine] | 10 to 100 nM | ≥ 10000 nM | 750 to 1500 nM | < 70% | 750 to 1500 nM | 750 to 1500 nM | – | ≥ 10 °C | – | – | – | – | – | – | – | –
15 | COc1cc(S(=O)(=O)N(C)C)ccc1NCC#Cc1nc2c(N[C@@H]3CCN(C)C[C@@H]3F)cccn2c1CC(F)(F)F [Example 65, 4-{[3-(8-{[(3S,4R)-3-fluoro-1-methylpiperidin-4-yl]amino}-3-(2,2,2-trifluoroethyl)imidazo[1,2-a]pyridin-2-yl)prop-2-yn-1-yl]amino}-3-methoxy-N,N-dimethylbenzenesulfonamide] | 10 to 100 nM | 5000 to 8000 nM | 750 to 1500 nM | 70 to 80% | < 750 nM | 750 to 1500 nM | – | ≥ 10 °C | – | – | – | – | – | – | – | –
16 | COc1cc(S(=O)(=O)C(C)C)ccc1NCC#Cc1nc2c(N[C@@H]3CCN(C)C[C@@H]3F)cccn2c1CC(F)(F)F [Example 77, (3S,4R)-3-fluoro-N-[2-(3-{[2-methoxy-4-(propane-2-sulfonyl)phenyl]amino}prop-1-yn-1-yl)-3-(2,2,2-trifluoroethyl)imidazo[1,2-a]pyridin-8-yl]-1-methylpiperidin-4-amine] | < 10 nM | 5000 to 8000 nM | < 750 nM | 70 to 80% | < 750 nM | < 750 nM | – | ≥ 10 °C | – | – | – | – | – | – | – | –
17 | CNC(=O)c1ccc(NCC#Cc2nc3c(N[C@@H]4CCN(C)CC4(F)F)cccn3c2CC(F)(F)F)c(OC)c1 (single isomer, unassigned) [Example 37] | > 1000 nM | ≥ 10000 nM | > 3000 nM | < 70% | > 3000 nM | > 3000 nM | – | 5 to 10 °C | – | – | – | – | – | – | – | –
